{"source": "patent US6346252B1", "about": "“Method of obtaining an antibacterial and/or antifungal extract from the algae, bonnemaisoniacea” (Algues et Mer (S.A.R.L.), priority 1996, dated 2002)", "tested_on": "Pseudomonas aeruginosa strain", "assay": "embedding of 1 ml and 0.1 ml samples of mother solution in PCA medium", "format": "cell-based", "conditions": "for bacteria count in embedding: PCA medium 48 hours, strain at 1.9 10^8, bromoform 60 mg/l", "method": "In order to test that the antibacterial and/or antifungal action is in fact related to a group of halogenated molecules of low molecular weight, an aqueous solution of 60 mg/l bromoform was prepared and its action compared with that of a permeate of nanofiltration at the threshold of 400 Daltons which therefore only contained micromolecules, in particular halogenated molecules. After embedding 1 ml and 0.1 ml samples in a PCA medium for 48 hours from a mother solution containing the product to be tested and the Pseudomonas aeruginosa strain at a concentration of 1.9 10^8, the results in the following table were obtained.\nIn this table, and in the following tables, “>>” means that bacteria developed and could not be counted.\nAlso, the microfiltration permeate was fractionated by subjecting it to ultrafiltration (uF) or nanofiltration (nF), and the antibacterial action on the Pseudomonas strain was measured for each fraction and at different times in accordance with the protocol described below. The following results were obtained:\nOther tests were conducted to measure the influence of pH on the extract's activity and its ageing. Acidification was carried out during the so-called acidification stage of the method for obtaining the extract of the invention, using citric acid.", "data": [{"molecule": "BrC(Br)Br", "note": "[Bromoform, bromoform]", "values": [{"measurement": "bacteria count in embedding", "setting": "0.1 ml embedding", "result": ">>"}, {"measurement": "bacteria count in embedding", "setting": "1 ml embedding", "result": ">>"}, {"measurement": "action against the Pseudomonas aeruginosa strain", "setting": "bromoform at 1.5 times the concentration in the extract, permeate on second day after production", "result": "no action"}]}]}
